Assay results as given in US20100226991A1, “SOLID INORGANIC/ORGANIC HYBRID WITH MODIFIED SURFACE” (CENTRE NATIONAL DE LA RECHERCHE SCIENTIFIQUE - CNRS-, priority 2007, published 2010).
In brackets after ≈: the same amount, converted by molar mass.

How the values were obtained:
[1] = 20° C.; cited from earlier work
[2] = test system: rats; settings: cited from earlier work
[3] = Solubility of busulfan in various solvents; type: physicochemical
Excerpt: The solvents chosen for the impregnation are those in which busulfan has appreciable solubility (acetone, acetonitrile, chloroform, dichloromethane, dimethyl carbonate) (Table 18).

[4] = test system: Female Wistar rats; settings: rat, in vivo
Procedure: The animals used for the experiment are […] female Wistar rats weighing 161.36±16.1 g.
All the tests were performed in the animal house of the University Pharmacy school under temperature and humidity conditions, and after 3 days of adapting the animals to the animal house (3 days).
For the acute toxicity tests, a single intrajugular injection of the materials MIL-88A (150 and 500 nm), MIL-88Bt (50 and 140 nm) or 5% glucose (control group) is performed on 4 groups (at 1 day, 1 week, 1 month and 3 months, respectively) of 8 rats chosen at random and anesthetized with isoflurane.
The change in weight and the behavior of the animals were monitored. […]
Moreover, each group of animals was sacrificed after 1 day, 1 week, 1 and 3 months, respectively. The animals were anesthetized with isoflurane and the spleen, kidneys, liver and heart were then removed and stored for histological studies. Four livers were also used to perform a microsomal extraction in order to measure the activation of cytochrome P450. […]

[5] = test system: Cytochrome P450; set-up: species or system Wistar rats; settings: rat, in vivo
Excerpt: Moreover, each group of animals was sacrificed after 1 day, 1 week, 1 and 3 months, respectively. The animals were anesthetized with isoflurane and the spleen, kidneys, liver and heart were then removed and stored for histological studies. Four livers were also used to perform a microsomal extraction in order to measure the activation of cytochrome P450.
Cytochrome P450 is an enzyme associated with the […] of the smooth endoplasmic reticulum, which is highly involved in the degradation of exogenous molecules. This enzyme has very low substrate specificity and is capable of catalyzing the transformation of newly synthesized compounds such as medicaments. The majority of the P450 cytochromes can be induced or repressed, at the transcriptional level, by various xenobiotics; this is often the cause of side effects of medicaments. Assaying this enzyme makes it possible to determine whether the MOF material used is metabolized by cytochrome P450, in which case it will activate or inhibit its activity.
The amount of cytochrome can be interpreted only on condition that it has been related to the total amount of protein contained in each sample. Assay of the protein contained in the sample was performed by means of a BCA kit supplied by Pierce (batch #HI106096). […]

Compound: COc1ccc(C(=O)c2ccccc2)c(O)c1 [Benzophenone-3, 2-hydroxy-4-methoxybenzophenone]
- solubility in water [1]: 3.7 µg/mL (≈ 0.0162 mM)

Compound: COc1cc(O)c(C(=O)c2ccccc2)cc1S(=O)(=O)O [Benzophenone-4, 2-hydroxy-4-methoxybenzophenone-5-sulfonic acid]
- solubility in water [1]: 100000 µg/mL (≈ 324 mM)

Compound: [Cl][Zr]([Cl])([Cl])[Cl] [ZrCl4]
- oral lethal dose 50 (LD50) [2]: 1700 mg/kg

Compound: CS(=O)(=O)OCCCCOS(C)(=O)=O [busulfan, 1,4-butanediol dimethylsulfonate]
- solubility ([3]; acetone, organic solvent or mixture): 20000 µg/mL
- solubility ([3]; acetonitrile, organic solvent or mixture): 30000 µg/mL
- solubility ([3]; chloroform, organic solvent or mixture): 8000 µg/mL
- solubility ([3]; dichloromethane, organic solvent or mixture): 10000 µg/mL
- solubility ([3]; dimethyl carbonate, organic solvent or mixture): 13000 µg/mL
- solubility ([3]; ethanol, organic solvent or mixture): < 4000 µg/mL
- solubility ([3]; ether, organic solvent or mixture): < 4000 µg/mL
- solubility ([3]; ethyl acetate, organic solvent or mixture): 6600 µg/mL
- solubility ([3]; hexane, organic solvent or mixture): < 4000 µg/mL
- solubility ([3]; methanol, organic solvent or mixture): < 4000 µg/mL
- solubility ([3]; tetrahydrofuran, organic solvent or mixture): ~5000 µg/mL
- solubility ([3]; toluene, organic solvent or mixture): ~4000 µg/mL
- solubility ([3]; water): 100 µg/mL

Compound: Fe3O[O2C—C2H2—CO2]3.X.nH2O [MIL-88A]
- liver weight [4]: returns to normal for MIL-88A after 3 months
- seric iron [4]: recovered a seric iron concentration comparable to that of the control group
- signs of severe toxicity [4]: do not induce any sign of severe toxicity
- weight change of the animals [4]: does not produce a significant variation in weight over time
- metabolism by cytochrome P450 (cytochrome activity vs glucose control) [5]: not metabolized by Cyp450

Compound: Fe3O[O2C—C6(CH3)4—CO2]3.OH.nH2O [MIL-88Bt]
- liver weight [4]: the weight remains high
- seric iron [4]: recovered a seric iron concentration comparable to that of the control group
- signs of severe toxicity [4]: do not induce any sign of severe toxicity
- weight change of the animals [4]: does not produce a significant variation in weight over time
- metabolism by cytochrome P450 (cytochrome activity vs glucose control) [5]: does not appear to be metabolized by Cyp450
